Measured values as given in paper PMC5883364 (Malaria Journal, 2018).
Several values for one entry are separate records, joined by “and”; a condition that tells them apart may be missing. Equal values may be shown once. Entries after “also recorded” stand apart in the source; their conditions may differ. Read-outs that look alike come from different tables or passages of the source.

Assays:
[1] = tested on: P. falciparum 3D7 (chloroquine and mefloquine sensitive); assay: SYBR Green I assay, IC50, strain 3D7; assay type: cell-based, Plasmodium falciparum; settings: read-out: P. falciparum IC50 ± SD, 3D7
Experimental: (§1) Staging and parasitaemia were determined by light microscopy of Giemsa-stained thin blood smears. Anti-malarial activity was determined using the SYBR Green I assay, as previously described.

[2] = tested on: V79 (Chinese hamster lung) cells; settings: for LD50 V79: Chinese hamster, 24 h; for Selectivity index LD50 (V79)/IC50 (3D7): V79 vs 3D7; for Selectivity index LD50 (V79)/IC50 (Dd2): V79 vs Dd2; for Selectivity index LD50 (V79)/IC50 (IPC4912): V79 vs IPC4912; for Selectivity index LD50 (V79)/IC50 (IPC5202): V79 vs IPC5202
Experimental: (§2) Cytotoxicity was assessed on the mammalian cell lines HepG2-A16 (human hepatoma) and V79 (Chinese hamster lung), using a MTT based assay, as previously described. […] V79 and HepG2 cell lines were incubated for 24 and 48 h, respectively (media changed at 24 h intervals). Absorbance was read at 570 nm on a multi-mode microplate reader (Triad, Dynex Technologies), to produce a log dose-dependence curve. The LD50 value for each compound was estimated by non-linear interpolation of the dose-dependence curve (GraphPad Software).

[3] = tested on: HepG2-A16 (human hepatoma) cells; settings: for LD50 HepG2: human, 48 h; for Selectivity index LD50 (HepG2)/IC50 (3D7): HepG2 vs 3D7; for Selectivity index LD50 (HepG2)/IC50 (Dd2): HepG2 vs Dd2; for Selectivity index LD50 (HepG2)/IC50 (IPC4912): HepG2 vs IPC4912; for Selectivity index LD50 (HepG2)/IC50 (IPC5202): HepG2 vs IPC5202
Experimental: as §2

[4] = tested on: P. falciparum Dd2 (chloroquine-resistant, mefloquine-resistant); assay: SYBR Green I assay, IC50, strain Dd2; assay type: cell-based, Plasmodium falciparum; settings: for IC50: read-out: P. falciparum IC50 ± SD, Dd2; for Resistance Index RIa = IC50 (Dd2)/IC50 (3D7): Dd2 vs 3D7
Experimental: as §1

[5] = tested on: P. falciparum IPC4912 (artemisinin-resistant, K13 I543T); assay: SYBR Green I assay, IC50, strain IPC4912; assay type: cell-based, Plasmodium falciparum; settings: for Resistance Index RIc = IC50 (IPC4912)/IC50 (3D7): IPC4912 vs 3D7; for IC50: Plasmodium falciparum, read-out: P. falciparum IC50 ± SD, IPC4912
Experimental: Staging and parasitaemia were determined by light microscopy of Giemsa-stained thin blood smears. Anti-malarial activity was determined using the SYBR Green I assay, as previously described. Briefly, early ring stage parasites (> 80% of rings) were challenged with a 1:3 serial dilution of each compound, in concentrations ranging from 10,000–0.169 nM. Fluorescence intensity was measured with a multi-mode microplate reader (Triad, Dynex Technologies), with excitation and emission wavelengths of 485 and 535 nm, respectively, and analysed by nonlinear regression using GraphPad Prism to determine IC50 values.

[6] = tested on: P. falciparum IPC5202 (artemisinin-resistant, K13 R539T); assay: SYBR Green I assay, IC50, strain IPC5202; assay type: cell-based, Plasmodium falciparum; settings: for Resistance Index RIb = IC50 (IPC5202)/IC50 (3D7): IPC5202 vs 3D7; for IC50: Plasmodium falciparum, read-out: P. falciparum IC50 ± SD, IPC5202, strain IPC5202
Experimental: as §1

[7] = Solubility remark in the IC50 table; assay type: physicochemical; set-up: key: ?: Low solubility; settings: symbol printed in the IC50 cells
Source text: Supplement 12936_2018_2281_MOESM1_ESM.docx, table 1: Table 1: Antiplasmodial activity in vitro (IC50) against resistant and sensitive P. falciparum strains. | column: P. falciparum IC50 ± SD (nM)

Swiss albino mice = assay: Acute toxicity observation in treated mice; assay type: in vivo; settings: 50 mg/kg/day oral, monitored daily
Experimental: (§3) In vivo tests were performed following the Guidelines for Ethical Conduct in The Care and Use of Animals of the Federal University of Rio Grande do Norte—Brazil (CEUA/UFRN/46/2013). Evaluation of anti-malarial activity in vivo was carried out using the Peters’ 4-day suppressive test, with modifications, as previously described. Swiss albino mice were infected with Plasmodium berghei NK65 and randomly allocated to groups of five animals. Animals were treated with 50 mg/kg/day of each of the tested compounds (dissolved in PBS containing 1% DMSO), administrated orally, for four consecutive days. The control group was treated with a solution of PBS/1% DMSO. On days 5 (D5), 7 (D7) and 10 (D10) after parasite inoculation, tail blood smears were Giemsa-stained and examined microscopically to estimate parasitaemia. Acute toxicity testing was carried out to determine adverse effects due to compounds (including weight loss, hair appearance, skin wounds and behavioural changes), and recorded daily.

Plasmodium berghei NK65 = assay: Peters' 4-day suppressive test in Swiss albino mice; assay type: in vivo; settings: for in vivo outcome against P. berghei in words: followed to day 10; for inhibition in vivo at 50 mg/kg/day: Plasmodium berghei
Experimental: as §3

[8] = tested on: P. falciparum IPC5202 ring-stage parasites; assay: Ring-stage survival assay (RSA), IPC5202; assay type: cell-based, Plasmodium falciparum; settings: 6 h pulse, 10 x IC50 (DHA 700 nM), ART-R strain IPC5202
Experimental: (§4) Ring-stage survival assays (RSA) were carried out as described in [21], with modifications. Parasite cultures were synchronized once, with 5% sorbitol, and in the next reinvasion cycle, twice, with a 6 h interval. […] Then, plates were centrifuged and supernatant replaced by drug-free culture media. After additional incubation during 66 h for ring-stage, and 42 h for mature-stage, susceptibility was assessed microscopically on Giemsa-stained thin blood smears by estimating the percentage of viable parasites that developed into a second generation of rings or trophozoites.

[9] = tested on: P. falciparum 3D7 ring-stage parasites; assay: Ring-stage survival assay (RSA), 3D7; assay type: cell-based, Plasmodium falciparum; settings: 6 h pulse, 10 x IC50 (DHA 700 nM), ART-S strain 3D7
Experimental: as §4

[10] = Plasmodium falciparum, 3D7, strain 3D7
[11] = Plasmodium falciparum, DD2, strain Dd2
[12] = mice, 50 mg/kg/day oral for 4 days, day 5
[13] = mice, 50 mg/kg/day oral for 4 days

Structure (SMILES) | IC50 [1, 10] [nM] | LD50 V79 [2] [mM] | LD50 HepG2 [3] [mM] | IC50 [4, 11] [nM] | Resistance Index RIc = IC50 (IPC4912)/IC50 (3D7) [5] | IC50 [5] [nM] | Selectivity index LD50 (V79)/IC50 (3D7) [2] | Selectivity index LD50 (V79)/IC50 (Dd2) [2] | Selectivity index LD50 (HepG2)/IC50 (3D7) [3] | Selectivity index LD50 (HepG2)/IC50 (Dd2) [3] | Resistance Index RIb = IC50 (IPC5202)/IC50 (3D7) [6] | IC50 [6] [nM] | also measured
CC(C)(C)OC(=O)NCCCCN [LC64, tert-butyl(4-aminobutyl)carbamate] | > 10000 | > 1 | 1.0 | > 10000 |  |  |  |  |  |  |  |  | 
C[C@@H]1CC[C@H]2[C@@H](C)C(=O)O[C@@H]3O[C@@]4(C)CC[C@@H]1[C@]32OO4 [ART, artemisinin, reference compound] | 4 ± 0.1 | > 0.4 | 0.4 | 2.5 ± 0.1 | 3.32 | 13.3 ± 2.2 | 104844.6 | 168515.4 | 104844.6 | 168515.4 | 8.32 | 33.3 ± 8 | IC50 ([1]; strain 3D7): 3.97 ± 0.08 nM; Selectivity index LD50 (V79)/IC50 (IPC4912) [2]: 31295.7; Selectivity index LD50 (V79)/IC50 (IPC5202) [2]: 12499.5; Selectivity index LD50 (HepG2)/IC50 (IPC4912) [3]: 31295.7; Selectivity index LD50 (HepG2)/IC50 (IPC5202) [3]: 12499.5; IC50 ([4]; strain Dd2): 2.47 ± 0.1 nM
O=C(Nc1nnn[nH]1)C1CCC2(CC1)OOC1(O2)C2CC3CC(C2)CC1C3 (centres unmarked) [LC142] | 117 ± 33.2 | > 1 | 1.0 | 107 ± 45.4 |  |  | 8568.9 | 9354.5 | 8568.9 | 9354.5 |  |  | Resistance Index RIa = IC50 (Dd2)/IC50 (3D7) [4]: 0.9
NCCCCNC1CCC2(CC1)OOC1(O2)C2CC3CC(C2)CC1C3 (centres unmarked) [MIS16] |  | > 1 | 1.0 |  |  |  |  |  |  |  |  |  | solubility remark (no IC50 obtained) [7]: ?
CC(C)(C)OC(=O)NCCCCNC(=O)C1CCC2(CC1)OOC1(O2)C2CC3CC(C2)CC1C3 (centres unmarked) [MIS13] |  | > 1 | 0.3 |  | 0.04 | 0.3 ± 0.3 | 135135.1 | 294117.6 | 44594.6 | 97058.8 | 0.23 | 1.7 ± 1.1 | adverse effects in vivo (Swiss albino mice): no adverse effects were observed; in vivo outcome against P. berghei in words (Plasmodium berghei NK65; 50 mg/kg/day oral for 4 days): by day 10 the five mice were cured; also recorded: totally suppressed P. berghei parasitaemia; inhibition in vivo at 50 mg/kg/day (Plasmodium berghei NK65; po, 120 h, read-out: % inhibition of parasite growth, Day 5): 92.6%; inhibition in vivo at 50 mg/kg/day (Plasmodium berghei NK65; po, 168 h, read-out: % inhibition of parasite growth, Day 7): 98.6%; inhibition in vivo at 50 mg/kg/day (Plasmodium berghei NK65; po, 240 h, read-out: % inhibition of parasite growth, Day 10): 100%; mice presenting parasitaemia, day 5 (Plasmodium berghei NK65; groups of five mice, 50 mg/kg/day oral, day 5): 1/5; Mean parasitaemia ± SD, Day 5 (Plasmodium berghei NK65; [12]): 0.11 ± 0.19%; Mean parasitaemia ± SD, Day 7 (Plasmodium berghei NK65; [13]): 0.05 ± 0.10%; Mean parasitaemia ± SD, Day 10 (Plasmodium berghei NK65; [13]): 0%; Selectivity index LD50 (V79)/IC50 (IPC4912) [2]: 3333333.3; Selectivity index LD50 (V79)/IC50 (IPC5202) [2]: 588235.2; Selectivity index LD50 (HepG2)/IC50 (IPC4912) [3]: 1100000.0; Selectivity index LD50 (HepG2)/IC50 (IPC5202) [3]: 194117.6; decrease in HepG2 survival ([3]; maximum dose of 1 mM): ~30%
O=c1nn[nH]n1-c1ccccc1 [LC133, 1-phenyl-1H-tetrazol-5-one] | > 10000 | > 1 | 1.0 | > 10000 |  |  |  |  |  |  |  |  | antiplasmodial activity of building blocks in words ([4]; tested separately, Dd2 and 3D7 (Additional file 1)): devoid of antiplasmodial activity
c1ccc(N2N=NNC23OOC2(O3)C3CC4CC(C3)CC2C4)cc1 (centres unmarked) [LC28] | 3660 ± 1490 | > 1 | 1.0 | 1130 ± 188 |  |  | 273.3 | 887.3 | 273.3 | 887.3 |  |  | Resistance Index RIa = IC50 (Dd2)/IC50 (3D7) [4]: 0.3
O=S1(=O)N=C(Cl)c2ccccc21 [LC60, 3-chloro-1,2-benzisothiazole-1,1-dioxide] | > 10000 | > 1 | 1.0 | > 10000 |  |  |  |  |  |  |  |  | 
NCC1CCC2(CC1)OOC1(O2)C2CC3CC(C2)CC1C3 (centres unmarked) [LC95] | 29.6 ± 5.18 | > 1 | 1.0 | 56.3 ± 1 |  |  | 3441.7 | 1784.7 | 3441.7 | 1784.7 |  |  | 
C1C2CC3CC1CC(C2)C31OOC2(CCC(Nc3nnn[nH]3)CC2)OO1 (centres unmarked) [LC163] | < 100 | > 1 | 1.0 |  | 0.30 | 18.6 ± 16.9 | 15873.0 | 22988.5 | 15873.0 | 22988.5 | 1.13 | 71.1 ± 1.1 | IC50 ([1]; strain 3D7): 63 ± 0.7 nM; Ring-stage survival rate (RSA), percentage of viable parasites, IPC5202 [8]: 2.0 ± 1.9% and > 1%; Ring-stage survival rate (RSA), percentage of viable parasites, 3D7 [9]: 6.9 ± 1.6% and > 1%; in vivo outcome against P. berghei in words (Plasmodium berghei NK65; 50 mg/kg/day oral for 4 days): recrudescence also occurred on day 10; inhibition in vivo at 50 mg/kg/day (Plasmodium berghei NK65; 120 h, mice, 50 mg/kg/day oral for 4 days, day 5, vs control group, read-out: % inhibition of parasite growth, Day 5 (converted)): 100%; inhibition in vivo at 50 mg/kg/day (Plasmodium berghei NK65; 168 h, mice, 50 mg/kg/day oral for 4 days, day 7, vs control group, read-out: % inhibition of parasite growth, Day 7 (converted)): 100%; inhibition in vivo at 50 mg/kg/day (Plasmodium berghei NK65; 240 h, mice, 50 mg/kg/day oral for 4 days, day 10, vs control group, read-out: % inhibition of parasite growth, Day 10 (converted)): 96.5%; Mean parasitaemia ± SD, Day 5 (Plasmodium berghei NK65; [12]): 0%; Mean parasitaemia ± SD, Day 7 (Plasmodium berghei NK65; [13]): 0%; Mean parasitaemia ± SD, Day 10 (Plasmodium berghei NK65; [13]): 0.2 ± 0.13%; Selectivity index LD50 (V79)/IC50 (IPC4912) [2]: 53763.4; Selectivity index LD50 (V79)/IC50 (IPC5202) [2]: 14064.7; Selectivity index LD50 (HepG2)/IC50 (IPC4912) [3]: 53763.4; Selectivity index LD50 (HepG2)/IC50 (IPC5202) [3]: 14064.7
C[C@H]1[C@H](OC(=O)CCC(=O)O)O[C@@H]2O[C@@]3(C)CC[C@H]4[C@H](C)CC[C@@H]1[C@@]24OO3 [ATN, artesunate, reference compound] | 5.1 ± 0.1 |  |  | 4.6 ± 1.4 | 0.76 | 3.9 ± 1.2 |  |  |  |  | 0.67 | 3.4 ± 0.1 | Resistance Index RIa = IC50 (Dd2)/IC50 (3D7) [4]: 0.9
NCCCCNC(=O)C1CCC2(CC1)OOC1(O2)C2CC3CC(C2)CC1C3 (centres unmarked) [MIS15] |  | > 1 | 1.0 |  |  |  |  |  |  |  |  |  | solubility remark (no IC50 obtained) [7]: ?
